{"source": "patent US7572827B2", "about": "“Use of angelicin and of its structural analogues for the treatment of thalassemia” (Universita' Degli Studi Di Ferrara, priority 2002, dated 2009)", "key": {"[1]": {"system": "human cell line K562", "assay": "Erythroid differentiation of K562 cells (benzidine-positive cells)", "assay_type": "cell-based", "conditions": "for Erythroid differentiation (%) = percentage of K562 cells that react positively to benzidine: optimal concentration of each compound (cytosine arabinoside 1 μM, bergapten 200 μM, angelicin 400 μM), six experiments, control 3-4", "procedure": "(§1) The biological activity of angelicin was evaluated by examining the capacity of that compound to modulate the expression of genes for gamma-globin in the human cell line K562, which is capable of differentiating in the erythroid manner by expressing genes for gamma-globin if subjected to treatment with modifiers of the biological response that are suitable for the purpose (3, 18, 19).\n(§2) The level of differentiation was evaluated by analyzing the positive reaction of the cells to benzidine (3). The production of haemoglobin was evaluated by electrophoresis on cellulose acetate and by colouring the gel with a solution based on benzidine/H2O2 (3). The expression of the genes encoding for gamma-globin was evaluated by quantitative RT-PCR (reverse transcriptase PCR) (3)."}, "[2]": {"system": "gamma-globin mRNA in K562 cells", "assay": "Gamma-globin mRNA accumulation in K562 cells by quantitative RT-PCR", "assay_type": "cell-based, human", "conditions": "K562 cells treated for 6 days, cytosine arabinoside 1 μM, bergapten 200 μM, angelicin 400 μM, control = 1", "procedure": "as §1, §2"}, "[3]": {"system": "gamma-globin mRNA in human erythroid precursors", "assay": "Gamma-globin mRNA accumulation in human erythroid precursors isolated from peripheral blood (Fibach two-stage culture), quantitative RT-PCR", "assay_type": "cell-based", "conditions": "for Gamma-globin mRNA, increase compared with untreated control erythroid precursors: human erythroid precursors, angelicin 500 μM, hydroxyurea 120 μM, control = 1, quantitative RT-PCR", "from_the_text": "In order to check whether angelicin was also capable of stimulating the production of mRNA for gamma-globin in human erythroid precursors isolated from peripheral blood, the technique published by Fibach et al. (20, 21) was used. This technique provides for two stages: in the first stage, the cells isolated from peripheral blood of a subject who is healthy or suffering from a haemopoietic pathology, such as sickle cell anaemia or beta-thalassaemia, are sown in a culture medium to which 10% of conditioned medium derived from the vesicle carcinoma cell line 5637 has been added. The second stage consists in cultivating the isolated cells in a suitable culture medium, supplemented by the erythropoietin hormone, 30% bovine foetal serum, 2-mercaptoethanol, albumin, glutamine and desamethasone in order to permit the proliferation and maturing of stem cells of the erythroid type. In this stage the cells can be treated with potential HbF inducers."}, "[4]": {"system": "human cell line K562", "assay": "Haemoglobin production in K562 cells (cellulose acetate electrophoresis, benzidine/H2O2 staining)", "assay_type": "cell-based", "conditions": "400 μM angelicin for 6 days", "procedure": "as §2"}}}
{"compound": "COc1c2ccoc2cc2oc(=O)ccc12", "note": "[bergapten, 5-methoxypsoralen]", "values": [{"measurement": "Erythroid differentiation (%) = percentage of K562 cells that react positively to benzidine", "setting": "[1]", "value": "50-60%"}, {"measurement": "Gamma-globin mRNA, increase compared with untreated control K562 cells", "setting": "[2]", "value": 3.48}]}
{"compound": "Nc1ccn([C@@H]2O[C@H](CO)[C@@H](O)[C@@H]2O)c(=O)n1", "note": "[cytosine arabinoside, reference compound]", "values": [{"measurement": "Erythroid differentiation (%) = percentage of K562 cells that react positively to benzidine", "setting": "[1]", "value": "75-80%"}, {"measurement": "Gamma-globin mRNA, increase compared with untreated control K562 cells", "setting": "[2]", "value": 3.24}]}
{"compound": "O=c1ccc2ccc3occc3c2o1", "note": "[angelicin]", "values": [{"measurement": "Erythroid differentiation (%) = percentage of K562 cells that react positively to benzidine", "setting": "[1]", "value": "55-60%"}, {"measurement": "percentage of K562 cells that react positively to benzidine", "setting": "[1]; angelicin 400 μM, 6 days, control K562 cells 3-4%", "value": "55-60%"}, {"measurement": "Gamma-globin mRNA, increase compared with untreated control K562 cells", "setting": "[2]", "value": 44.94}, {"measurement": "increase in the production of mRNA for gamma-globin compared with the same untreated cells", "setting": "[3]; human erythroid precursors from peripheral blood treated with angelicin", "value": 20.53, "unit": "times"}, {"measurement": "Gamma-globin mRNA, increase compared with untreated control erythroid precursors", "setting": "[3]", "value": 20.53}, {"measurement": "chief haemoglobin produced", "setting": "[4]", "value": "Hb Portland (alpha2gamma2)"}]}
{"compound": "NC(=O)NO", "note": "[hydroxyurea, reference compound]", "values": [{"measurement": "Gamma-globin mRNA, increase compared with untreated control erythroid precursors", "setting": "[3]", "value": 6.96}]}
